According to US8497254B2, “Oxadiazole derivatives as sphingosine 1-phosphate (S1P) receptor modulators” (Allergan, Inc., priority 2010, dated 2013):

target: T1, human S1P1 receptor (Homo sapiens, UniProt P21453); experiment: GTP γ35S binding assay for S1P1 activity; assay type: biochemical; settings: activity potency from GTP γ35S binding; membrane protein from cells stably expressing the S1P1 receptor; 30 min at 25° C.
T1 construct: expressed in transfected cells; membranes were used
Protocol: Compounds were synthesized and tested for S1P1 activity using the GTP γ^35S binding assay. These compounds may be assessed for their ability to activate or block activation of the human S1P1 receptor in cells stably expressing the S1P1 receptor.
GTP γ^35S binding was measured in the medium containing (mM) HEPES 25, pH 7.4, MgCl2 10, NaCl 100, dithitothreitol 0.5, digitonin 0.003%, 0.2 nM GTP γ^35S, and 5 μg membrane protein in a volume of 150 μl. Test compounds were included in the concentration range from 0.08 to 5,000 nM unless indicated otherwise. Membranes were incubated with 100 μM 5′-adenylylimmidodiphosphate for 30 min, and subsequently with 10 μM GDP for 10 min on ice. Drug solutions and membrane were mixed, and then reactions were initiated by adding GTP γ^35S and continued for 30 min at 25° C. Reaction mixtures were filtered over Whatman GF/B filters under vacuum, and washed three times with 3 mL of ice-cold buffer (HEPES 25, pH7.4, MgCl2 10 and NaCl 100). Filters were dried and mixed with scintillant, and counted for ^35S activity using a β-counter. Agonist-induced GTP γ^35S binding was obtained by subtracting that in the absence of agonist. Binding data were analyzed using a non-linear regression method. In case of antagonist assay, the reaction mixture contained 10 nM S1P in the presence of test antagonist at concentrations ranging from 0.08 to 5000 nM.

T1 sequence (P21453 whole entry): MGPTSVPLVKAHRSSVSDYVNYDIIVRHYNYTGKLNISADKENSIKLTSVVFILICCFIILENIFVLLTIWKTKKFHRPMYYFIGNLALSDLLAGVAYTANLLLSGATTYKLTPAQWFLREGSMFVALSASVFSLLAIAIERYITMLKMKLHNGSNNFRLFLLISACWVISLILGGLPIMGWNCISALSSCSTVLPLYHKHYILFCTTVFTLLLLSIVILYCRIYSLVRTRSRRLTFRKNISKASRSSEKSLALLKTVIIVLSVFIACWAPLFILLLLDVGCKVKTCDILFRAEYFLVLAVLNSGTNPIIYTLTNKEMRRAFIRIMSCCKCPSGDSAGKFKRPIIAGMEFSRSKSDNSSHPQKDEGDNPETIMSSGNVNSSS

Compound	EC50 [nM]
Cc1ccc(NC(c2cccc(Cl)c2)c2nc(-c3ccc(CNCCC(=O)O)cc3)no2)cc1C (stereo not shown) [3-{[4-(5-{(3-chlorophenyl)[(3,4-dimethylphenyl)amino]methyl}-1,2,4-oxadiazol-3-yl)benzyl]amino}propanoic acid]	1.5
Cc1ccc(CC(c2cccc(F)c2)c2nc(-c3ccc(CNCCCP(=O)(O)O)cc3)no2)cc1C (stereo not shown) [Compound 4, {3-[(4-{5-[2-(3,4-dimethylphenyl)-1-(3-fluorophenyl)ethyl]-1,2,4-oxadiazol-3-yl}benzyl)amino]propyl}phosphonic acid]	4.04
Cc1ccc(CC(c2cccc(Cl)c2)c2nc(-c3ccc(CNCCC(=O)O)cc3)no2)cc1C (stereo not shown) [Compound 1, 3-[(4-{5-[1-(3-chlorophenyl)-2-(3,4-dimethylphenyl)ethyl]-1,2,4-oxadiazol-3-yl}benzyl)amino]propanoic acid]	312
Cc1ccc(CC(c2cccc(F)c2)c2nc(-c3ccc(CNCCC(=O)O)cc3)no2)cc1C (stereo not shown) [Compound 3, 3-[(4-{5-[2-(3,4-dimethylphenyl)-1-(3-fluorophenyl)ethyl]-1,2,4-oxadiazol-3-yl}benzyl)amino]propanoic acid]	598
Cc1ccc(CC(c2cccc(Cl)c2)c2nc(-c3ccc(CNCCCP(=O)(O)O)cc3)no2)cc1C (stereo not shown) [Compound 2, {3-[(4-{5-[1-(3-chlorophenyl)-2-(3,4-dimethylphenyl)ethyl]-1,2,4-oxadiazol-3-yl}benzyl)amino]propyl}phosphonic acid]	3.77
Cc1ccc(CC(c2cccc(Cl)c2)c2nc(-c3ccc(CCC(=O)O)cc3C)no2)cc1C (stereo not shown) [Compound 6, 3-(4-{5-[1-(3-chlorophenyl)-2-(3,4-dimethylphenyl)ethyl]-1,2,4-oxadiazol-3-yl}-3-methylphenyl)propanoic acid]	1060
Cc1cccc(CC(c2cccc(Cl)c2)c2nc(-c3ccc(CCC(=O)O)cc3C)no2)c1 (stereo not shown) [Compound 8, 3-(4-{5-[1-(3-chlorophenyl)-2-(3-methylphenyl)ethyl]-1,2,4-oxadiazol-3-yl}-3-methylphenyl)propanoic acid]	17.1
Cc1ccc(CC(c2ccc(Cl)cc2)c2nc(-c3ccc(CCC(=O)O)cc3C)no2)cc1C (stereo not shown) [Compound 7, 3-(4-{5-[1-(4-chlorophenyl)-2-(3,4-dimethylphenyl)ethyl]-1,2,4-oxadiazol-3-yl}-3-methylphenyl)propanoic acid]	89.3

Second part, the compound after the results:

EC50 [nM]	Compound
535	Cc1cc(C)cc(C(Cc2ccc(C)c(C)c2)c2nc(-c3ccc(CNCCC(=O)O)cc3)no2)c1 (stereo not shown) [Compound 13, 3-[(4-{5-[2-(3,4-dimethylphenyl)-1-(3,5-dimethylphenyl)ethyl]-1,2,4-oxadiazol-3-yl}benzyl)amino]propanoic acid]
911	Cc1ccc(CC(c2cccc(Cl)c2)c2nc(-c3ccc(C(=O)NCCC(=O)O)cc3)no2)cc1C (stereo not shown) [Compound 9, 3-[(4-{5-[1-(3-chlorophenyl)-2-(3,4-dimethylphenyl)ethyl]-1,2,4-oxadiazol-3-yl}benzoyl)amino]propanoic acid]
1100	Cc1ccc(CC(c2cc(F)cc(F)c2)c2nc(-c3ccc(CNCCC(=O)O)cc3)no2)cc1C (stereo not shown) [Compound 10, 3-[(4-{5-[1-(3,5-difluorophenyl)-2-(3,4-dimethylphenyl)ethyl]-1,2,4-oxadiazol-3-yl}benzyl)amino]propanoic acid]
336	Cc1ccc(CC(c2cccc(C(F)(F)F)c2)c2nc(-c3ccc(CNCCC(=O)O)cc3)no2)cc1C (stereo not shown) [Compound 12, 3-{[4-(5-{2-(3,4-dimethylphenyl)-1-[3-(trifluoromethyl)phenyl]ethyl}-1,2,4-oxadiazol-3-yl)benzyl]amino}propanoic acid]
5.27	Cc1ccc(CC(c2cc(F)cc(F)c2)c2nc(-c3ccc(CNCCCP(=O)(O)O)cc3)no2)cc1C (stereo not shown) [Compound 11, {3-[(4-{5-[1-(3,5-difluorophenyl)-2-(3,4-dimethylphenyl)ethyl]-1,2,4-oxadiazol-3-yl}benzyl)amino]propyl}phosphonic acid]
